Some test systems named below: RPMI-8226 leukemia; UACC-257 melanoma; MALME-3M melanoma; SK-OV-3 ovarian; NCI-H226 lung; HOP-62 NSCLC; SK-MEL-28 melanoma; MCF7 breast; OVCAR-8 ovarian; SR leukemia.
Assay in all cases: DTP human tumour cell line panel, 48 h

This is an account of results in PubChem BioAssay (NCI).

By TGI is commonly meant the concentration at which net growth stops. Lower therefore signals greater sensitivity of the cells. What is called GI50 is the concentration that inhibits growth by half.

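Briefly, cells in 96-well plates were exposed to five compound concentrations for 48 h, and endpoints were estimated by linear interpolation. At the GI50, growth is halved. TGI denotes the concentration required for complete inhibition of growth.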 Some results are limits rather than exact numbers.

Turning to `O/N=C1\CSc2ccccc2C1`, the TGI in the assay on RPMI-8226 leukemia, in the assay with UACC-257 melanoma, in the assay on MALME-3M melanoma, in the assay with SK-OV-3 ovarian, with NCI-H226 lung and in the assay with HOP-62 NSCLC was over 100 µM each time. Moreover, the TGI in the assay with SK-MEL-28 melanoma, in the assay on MCF7 breast, in the assay on OVCAR-8 ovarian and in the assay on SR leukemia was over 100 µM in each case.
For `O=c1[nH]nc(Cc2ccccc2)n1C1CC1`, the TGI in the assay on RPMI-8226 leukemia, in the assay on UACC-257 melanoma, in the assay on MALME-3M melanoma, in the assay with SK-OV-3 ovarian, in the assay on NCI-H226 lung and in the assay with HOP-62 NSCLC was over 100 µM each time. Moreover, the TGI in the assay with SK-MEL-28 melanoma, with MCF7 breast, in the assay with OVCAR-8 ovarian and in the assay with SR leukemia was over 100 µM each time.
Turning to `Cn1cnnc1SC(F)(F)c1nc2ccccc2o1`, the TGI in the assay on RPMI-8226 leukemia, in the assay on UACC-257 melanoma, with MALME-3M melanoma, with SK-OV-3 ovarian, in the assay with NCI-H226 lung and in the assay with HOP-62 NSCLC was over 100 µM throughout. Besides, the total growth inhibition concentration (TGI) in the assay on SK-MEL-28 melanoma, with MCF7 breast, in the assay on OVCAR-8 ovarian and with SR leukemia was over 100 µM throughout.
For the compound `CC(=O)O[C@H]1C[C@H]2[C@@H]([C@H](OC(C)=O)C[C@@H]3CC4(CC[C@@]32C)OOC2(CCCCC2)OO4)[C@@H]2CC[C@H]([C@H](C)CCC(=O)O)[C@@]12C`, the concentration for total growth inhibition (TGI) is 20.7 µM in the assay with RPMI-8226 leukemia; 25 µM in the assay on UACC-257 melanoma; 34.3 µM in the assay on MALME-3M melanoma; 26.9 µM in the assay with SK-OV-3 ovarian; 31.6 µM with NCI-H226 lung; 5.93 µM with HOP-62 NSCLC. In addition, the TGI in the assay with SK-MEL-28 melanoma is 24 µM; in the assay on MCF7 breast it was 22.1 µM; with OVCAR-8 ovarian, 16.1 µM; in the assay with SR leukemia it was 8.3 µM.
As for `CCCCC1Cc2cc(OC)ccc2-c2n1c1cc(OC)ccc1[n+]2C` (stereo not given) (tested in a mixture with another compound), the concentration for total growth inhibition (TGI) in the assay with RPMI-8226 leukemia is 2.17 µM; with UACC-257 melanoma, over 34.3 µM; in the assay on MALME-3M melanoma it was 9.71 µM; in the assay on SK-OV-3 ovarian, 54.1 µM; in the assay on NCI-H226 lung it was 24.2 µM; with HOP-62 NSCLC it was over 61.7 µM. Also, the TGI was determined as 25.8 µM in the assay with SK-MEL-28 melanoma, 15.8 µM with MCF7 breast, 49 µM with OVCAR-8 ovarian and 12.1 µM in the assay on SR leukemia.
As to `O=S(=O)(O)c1ccc2c(N=Nc3c(O)ccc4ccccc34)cccc2c1`, the TGI in the assay with RPMI-8226 leukemia, in the assay on UACC-257 melanoma, in the assay with MALME-3M melanoma, in the assay with SK-OV-3 ovarian, in the assay with NCI-H226 lung and in the assay with HOP-62 NSCLC was over 100 µM throughout. The TGI with SK-MEL-28 melanoma, with MCF7 breast, with OVCAR-8 ovarian and in the assay with SR leukemia was over 100 µM throughout.
As for `O=C(O)Cc1ccc(Oc2nc3ccccc3nc2-c2ccccc2)cc1`, the TGI with RPMI-8226 leukemia, in the assay with UACC-257 melanoma, in the assay with MALME-3M melanoma, in the assay on SK-OV-3 ovarian, in the assay on NCI-H226 lung and in the assay with HOP-62 NSCLC was over 100 µM throughout. Further, the total growth inhibition concentration (TGI) in the assay on SK-MEL-28 melanoma, with MCF7 breast, in the assay with OVCAR-8 ovarian and in the assay on SR leukemia was over 100 µM each time.
Consider `Cc1cc(/N=C/c2ccc(Cl)cc2)n(-c2ccccc2)n1`, for which the TGI with RPMI-8226 leukemia, in the assay on UACC-257 melanoma, in the assay on MALME-3M melanoma, in the assay on SK-OV-3 ovarian, in the assay on NCI-H226 lung and in the assay on HOP-62 NSCLC was over 100 µM in each case. The TGI in the assay on SK-MEL-28 melanoma, with MCF7 breast, in the assay on OVCAR-8 ovarian and with SR leukemia was over 100 µM each time.
Consider `Nc1nc2c(c(=O)[nH]1)NC(CCNc1ccc(C(=O)O)cc1)CN2` (stereo not given), for which the TGI in the assay on RPMI-8226 leukemia, in the assay with UACC-257 melanoma, in the assay on MALME-3M melanoma, with SK-OV-3 ovarian, in the assay with NCI-H226 lung and in the assay with HOP-62 NSCLC was over 100 µM in each case. For the same compound, the TGI in the assay on SK-MEL-28 melanoma, in the assay with MCF7 breast, in the assay with OVCAR-8 ovarian and with SR leukemia was over 100 µM throughout.
As for `CCOc1cc(/C=C/C(=O)CC(=O)/C=C/c2ccc(OC(=O)CNCCN(CC)CC)c(OCC)c2)ccc1OC(=O)CNCCN(CC)CC`, the GI50 in the assay on RPMI-8226 leukemia was 0.45 µM; with UACC-257 melanoma it was 1.32 µM; with MALME-3M melanoma, 1.91 µM; in the assay with SK-OV-3 ovarian, 5.39 µM; in the assay with NCI-H226 lung, 2.15 µM; in the assay with HOP-62 NSCLC, 2.5 µM. For the same compound, the GI50 in the assay with SK-MEL-28 melanoma is 1.96 µM; in the assay on MCF7 breast, 0.782 µM; in the assay on OVCAR-8 ovarian it was 1.03 µM; with SR leukemia, 0.313 µM. In addition, the total growth inhibition concentration (TGI) in the assay on RPMI-8226 leukemia turned out to be 2.1 µM; in the assay on UACC-257 melanoma, 3.48 µM; with MALME-3M melanoma it was 4.12 µM; with SK-OV-3 ovarian, 20.8 µM; with NCI-H226 lung, 5.17 µM; with HOP-62 NSCLC it was 6.06 µM. In addition, the TGI was found to be 4.56 µM in the assay with SK-MEL-28 melanoma, 10.5 µM in the assay with MCF7 breast, 12.2 µM in the assay on OVCAR-8 ovarian and 1.63 µM in the assay with SR leukemia.
